Laboratory results from ChEMBL document CHEMBL1667808, “Substituted imidazole derivatives as novel cardiovascular agents” (Bioorg Med Chem Lett, 2011).
Active and inactive are the calls of the source. The calls are words filed in the database; no cut-off is given here.

Key:
Felis catus [1] = assay: Antihypertensive activity in cat assessed as change in blood pressure at 2.5 mg/kg measured within 5 mins; format: functional
Felis catus [2] = assay: Antihypertensive activity in cat assessed as change in blood pressure at 2.5 mg/kg measured after 5 mins; format: functional
Felis catus [3] = assay: Hypotensive activity in cat assessed as decrease carotid occlusion response at 2.5 mg/kg; format: functional, organism-based; parameters: dose 2.5 mg/kg
Felis catus [4] = assay: Hypotensive activity in cat assessed as decrease norepinephrine response at 2.5 mg/kg; format: functional, organism-based; parameters: dose 2.5 mg/kg
Felis catus [5] = assay: Antihypertensive activity in cat assessed as change in heart rate at 2.5 mg/kg measured within 5 mins; format: functional
Felis catus [6] = assay: Antihypertensive activity in cat assessed as change in heart rate at 2.5 mg/kg measured after 5 mins; format: functional

| SMILES | Activity (Felis catus [1]) [mmHg] | Activity (Felis catus [2]) [mmHg] | Activity (Felis catus [3]) | Activity (Felis catus [4]) | Activity (Felis catus [5]) [bpm] | Activity (Felis catus [6]) |
| --- | --- | --- | --- | --- | --- | --- |
| COc1ccc(-c2nnc(Cn3c(-c4ccc(OC)cc4)nc(-c4ccccc4)c3-c3ccccc3)o2)cc1 | -10 | 10 | Active | Active |  |  |
| COc1ccc(/C=N/NC(=O)Cn2c(-c3ccc(O)c(OC)c3)nc(-c3ccccc3)c2-c2ccccc2)cc1 | -10 |  | Active | inactive |  |  |
| CN(C)c1ccc(-c2nc(-c3ccccc3)c(-c3ccccc3)n2CC(=O)NN)cc1 | -30 | -30 | Active | inactive | -18 | -27 bpm |
| COc1cc(-c2nc(-c3ccccc3)c(-c3ccccc3)n2CC(=O)NN)ccc1O | -30 | -20 | Active | inactive |  | inactive |
| COc1ccc(/C=N/NC(=O)Cn2c(-c3ccccc3)nc(-c3ccccc3)c2-c2ccccc2)cc1 | -15 |  | inactive | inactive | -8 | -11 bpm |
| COc1ccc(/C=N/NC(=O)Cn2c(-c3ccc(N(C)C)cc3)nc(-c3ccccc3)c2-c2ccccc2)cc1 | -45 | -50 | Active | inactive | -12 | -14 bpm |
| COc1ccc(/C=N/NC(=O)Cn2c(-c3ccc(OC)cc3)nc(-c3ccccc3)c2-c2ccccc2)cc1 | -5 | -5 | Active | inactive |  |  |
| CN(C)c1ccc(/C=N/NC(=O)Cn2c(-c3ccccc3O)nc(-c3ccccc3)c2-c2ccccc2)cc1 | -60 | -35 | Active | inactive | -8 | -11 bpm |
| COc1ccc(-c2nnc(Cn3c(-c4ccccc4)nc(-c4ccccc4)c3-c3ccccc3)o2)cc1 | -50 | -10 | Active | inactive |  |  |
| COc1cc(-c2nnc(Cn3c(-c4ccc(N(C)C)cc4)nc(-c4ccccc4)c3-c3ccccc3)o2)ccc1O | -50 | -20 | Active | inactive | -6 | -14 bpm |
| CN(C)c1ccc(-c2nnc(Cn3c(-c4ccccc4O)nc(-c4ccccc4)c3-c3ccccc3)o2)cc1 | -15 | 5 | inactive | inactive | -5 | -5 bpm |
| COc1ccc(-c2nnc(Cn3c(-c4ccc(N(C)C)cc4)nc(-c4ccccc4)c3-c3ccccc3)o2)cc1 | -15 | -10 | Active | Active | -6 | -10 bpm |
| COc1ccc(-c2nc(-c3ccccc3)c(-c3ccccc3)n2CC(=O)NN)cc1 | -20 | -5 | inactive | inactive | -16 | -21 bpm |
| NNC(=O)Cn1c(-c2ccccc2O)nc(-c2ccccc2)c1-c1ccccc1 | -22 | -17 | inactive | inactive | -21 | inactive |
| COc1ccc(-c2nnc(Cn3c(-c4ccc(O)c(OC)c4)nc(-c4ccccc4)c3-c3ccccc3)o2)cc1 | -10 | -10 | Active | inactive |  |  |
| COc1cc(/C=N/NC(=O)Cn2c(-c3ccc(N(C)C)cc3)nc(-c3ccccc3)c2-c2ccccc2)ccc1O | -80 | -55 | Active | inactive | -14 | -20 bpm |
| NNC(=O)Cn1c(-c2ccccc2)nc(-c2ccccc2)c1-c1ccccc1 | -25 | -15 | inactive | inactive | -6 | -6 bpm |
